In ChEMBL document CHEMBL4354855 (J Med Chem, 2020):
Blank lines part the entries; values can stand above or below the compound they belong to.

Experiments:
[1] = Intrinsic clearance in rat liver microsomes; type: ADME, Microsome; settings: read-out: CLH
[2] = Half life in human plasma; type: ADME, cell-free
[3] = Drug level in OFA-1 rat blood at 3 mg/kg, po measured after 5 hrs; type: ADME, organism-based; settings: whole blood, read-out: Drug uptake
[4] = Oral bioavailability in OFA-1 rat at 10 mg/kg; type: ADME, organism-based; settings: in vivo
[5] = Lipophilicity, log P of the compound; type: physicochemical; settings: octanol/water
[6] = Stability of the compound in GSH assessed as parent compound remaining measured after 24 hrs; type: physicochemical; settings: GSH (glutathione); read-out: Stability
[7] = Thermodynamic solubility of the compound at pH 6.8; type: physicochemical; settings: buffer, read-out: Therm_solubility
[8] = Thermodynamic solubility of the compound at pH 1; type: physicochemical; settings: buffer, read-out: Therm_solubility
[9] = Intrinsic clearance in mouse liver microsomes; type: ADME, Microsome; settings: read-out: CLH
[10] = Intrinsic clearance in dog liver microsomes; type: ADME, Canis lupus familiaris, Microsome; settings: read-out: CLH
[11] = Clearance in Lewis rat at 1 mg/kg, iv or 3 mg/kg, po; type: ADME, organism-based; settings: in vivo
[12] = Volume of distribution at steady state in Lewis rat at 1 mg/kg, iv or 3 mg/kg, po; type: ADME, organism-based; settings: in vivo, read-out: Vdss
[13] = Half life in Lewis rat at 1 mg/kg, iv or 3 mg/kg, po; type: ADME, organism-based; settings: in vivo
[14] = Dose normalized Cmax in Lewis rat at 1 mg/kg, iv or 3 mg/kg, po; type: ADME, organism-based; settings: in vivo
[15] = Tmax in Lewis rat at 1 mg/kg, iv or 3 mg/kg, po; type: ADME, organism-based; settings: in vivo
[16] = Oral bioavailability in Lewis rat at 3 mg/kg; type: ADME, organism-based; settings: in vivo
[17] = Dose normalized AUC in Lewis rat at 3 mg/kg, po; type: ADME, organism-based; settings: in vivo
[18] = Clearance in C57BL/6 mouse at 1 mg/kg, iv or 3 mg/kg, po; type: ADME, organism-based; settings: in vivo
[19] = Volume of distribution at steady state in C57BL/6 mouse at 1 mg/kg, iv or 3 mg/kg, po; type: ADME, organism-based; settings: in vivo, read-out: Vdss
[20] = Half life in C57BL/6 mouse at 1 mg/kg, iv or 3 mg/kg, po; type: ADME, organism-based; settings: in vivo
[21] = Dose normalized Cmax in C57BL/6 mouse at 1 mg/kg, iv or 3 mg/kg, po; type: ADME, organism-based; settings: in vivo
[22] = Tmax in C57BL/6 mouse at 1 mg/kg, iv or 3 mg/kg, po; type: ADME, organism-based; settings: in vivo
[23] = Oral bioavailability in C57BL/6 mouse at 3 mg/kg; type: ADME, organism-based; settings: in vivo
[24] = Dose normalized AUC in C57BL/6 mouse at 3 mg/kg, po; type: ADME, organism-based; settings: in vivo
[25] = Clearance in Beagle dog at 1 mg/kg, iv or 3 mg/kg, po; type: ADME, organism-based, Canis lupus familiaris; settings: in vivo
[26] = Volume of distribution at steady state in Beagle dog at 1 mg/kg, iv or 3 mg/kg, po; type: ADME, organism-based, Canis lupus familiaris; settings: in vivo, read-out: Vdss
[27] = Half life in Beagle dog at 1 mg/kg, iv or 3 mg/kg, po; type: ADME, organism-based, Canis lupus familiaris; settings: in vivo
[28] = Dose normalized Cmax in Beagle dog at 1 mg/kg, iv or 3 mg/kg, po; type: ADME, organism-based, Canis lupus familiaris; settings: in vivo
[29] = Tmax in Beagle dog at 1 mg/kg, iv or 3 mg/kg, po; type: ADME, organism-based, Canis lupus familiaris; settings: in vivo
[30] = Oral bioavailability in Beagle dog at 3 mg/kg; type: ADME, organism-based, Canis lupus familiaris; settings: in vivo
[31] = Dose normalized AUC in Beagle dog at 3 mg/kg, po; type: ADME, organism-based, Canis lupus familiaris; settings: in vivo
[32] = Drug level in OFA-1 rat at 1 mg/kg, po measured after 0.5 hrs; type: ADME, organism-based; settings: in vivo, read-out: Drug uptake
[33] = Drug level in OFA-1 rat at 1 mg/kg, po measured after 5 hrs; type: ADME, organism-based; settings: in vivo, read-out: Drug uptake
[34] = Drug level in OFA-1 rat blood at 10 mg/kg, po measured after 5 hrs; type: ADME, organism-based; settings: whole blood, read-out: Drug uptake
[35] = Clearance in OFA-1 rat at 3 mg/kg, po; type: ADME, organism-based; settings: in vivo

microsomal CLint [1]: 135 µL/min/mg
Structure (SMILES): C=CC(=O)N1CCC(Oc2c(N)ncnc2-c2cc(F)cc(NC(=O)c3ccc(C4CC4)cc3)c2C)C1 (stereo not drawn)

half-life [2]: > 120 min
concentration at 5 h [3]: 207 nM
Structure (SMILES): C=CC(=O)N1CCC(Oc2c(N)ncnc2-c2cc(F)cc(NC(=O)c3ccc(C4CC4)cc3F)c2C)CC1

half-life [2]: > 120 min
Structure (SMILES): C=CC(=O)N1CCC[C@H]1COc1c(N)ncnc1-c1cc(F)cc(NC(=O)c2ccc(C3CC3)cc2F)c1C

bioavailability [4]: 51%
half-life [2]: 35 min
Structure (SMILES): C=CC(=O)N1CC(Oc2c(N)ncnc2-c2cc(F)cc(NC(=O)c3ccc(C4CC4)cc3F)c2C)C1

microsomal CLint [1]: 924 µL/min/mg
Structure (SMILES): C=CC(=O)N(C)C/C=C/c1c(N)ncnc1-c1cc(F)cc(NC(=O)c2ccc(C3CC3)cc2)c1C

microsomal CLint [1]: 33 µL/min/mg
half-life [2]: > 120 min
logP [5]: 2.9
remaining at 24 h [6]: 68.5%
solubility thermodynamic [7]: < 3 µg/mL
solubility thermodynamic [8]: > 1500 µg/mL
microsomal CLint [9]: 325 µL/min/mg
microsomal CLint [10]: 146 µL/min/mg
clearance [11]: 44 mL/min/kg
Vd [12]: 1.4 L/kg
half-life [13]: 30 min
Cmax/dose [14]: 148 nM
Tmax [15]: 18 min
bioavailability [16]: 29%
AUC/dose [17]: 225 nM·h
clearance [18]: 97 mL/min/kg
Vd [19]: 1 L/kg
half-life [20]: 60 min
Cmax/dose [21]: 53 nM
Tmax [22]: 18 min
bioavailability [23]: 16%
AUC/dose [24]: 54 nM·h
clearance [25]: 29 mL/min/kg
Vd [26]: 1 L/kg
half-life [27]: 54 min
Cmax/dose [28]: 19 nM
Tmax [29]: 48 min
bioavailability [30]: 5%
AUC/dose [31]: 55 nM·h
concentration at 0.5 h [32]: 49.1 nM
concentration at 5 h [33]: 5.6 nM
Structure (SMILES): C=CC(=O)N(C)CCOc1c(N)ncnc1-c1cc(F)cc(NC(=O)c2ccc(C3CC3)cc2F)c1C [REMIBRUTINIB]

remaining at 24 h [6]: 95.8%
Structure (SMILES): C/C=C/C(=O)N(C)CCOc1c(N)ncnc1-c1cc(F)cc(NC(=O)c2ccc(C3CC3)cc2F)c1C

half-life [2]: > 120 min
Structure (SMILES): C=CC(=O)NCCOc1c(N)ncnc1-c1cc(F)cc(NC(=O)c2ccc(C3CC3)cc2F)c1C

microsomal CLint [1]: 25 µL/min/mg
concentration at 5 h [34]: 13 nM
bioavailability [4]: 5%
Structure (SMILES): C=CC(=O)N1CC(Oc2c(N)ncnc2-c2cc(F)cc(NC(=O)c3ccc(C4CC4)cc3)c2C)C1

remaining at 24 h [6]: 60.8%
Structure (SMILES): Cc1c(NC(=O)c2ccc(C3CC3)cc2F)cc(F)cc1-c1ncnc(N)c1OCCN(C)C(=O)/C=C/CN(C)C

half-life [2]: 42 min
Structure (SMILES): C=CC(=O)N1CC[C@H]1COc1c(N)ncnc1-c1cc(F)cc(NC(=O)c2ccc(C3CC3)cc2F)c1C

remaining at 24 h [6]: 79.6%
Structure (SMILES): CC#CC(=O)N(C)CCOc1c(N)ncnc1-c1cc(F)cc(NC(=O)c2ccc(C3CC3)cc2F)c1C

half-life [2]: 96 min
remaining at 24 h [6]: 0.1%
Structure (SMILES): C#CC(=O)N(C)CCOc1c(N)ncnc1-c1cc(F)cc(NC(=O)c2ccc(C3CC3)cc2F)c1C

microsomal CLint [1]: 815 µL/min/mg
Structure (SMILES): C=CC(=O)N(C)CC/C=C/c1c(N)ncnc1-c1cc(F)cc(NC(=O)c2ccc(C3CC3)cc2)c1C

half-life [2]: > 120 min
CL/F [35]: 307 mL/min/kg
Structure (SMILES): C=CC(=O)N(C)C/C=C/c1c(N)ncnc1-c1cc(F)cc(NC(=O)c2ccc(C3CC3)cc2F)c1C

half-life [2]: > 120 min
logP [5]: 3.6
Structure (SMILES): C=CC(=O)N(CC)CCOc1c(N)ncnc1-c1cc(F)cc(NC(=O)c2ccc(C3CC3)cc2F)c1C
